Data reported in patent US9315438B2, “Optically pure benzyl-4-chlorophenyl-C-glucoside derivative” (XUANZHU PHARMA CO., LTD., priority 2014, dated 2016).

Columns and labels:
human SGLT-1 = human SGLT-1 (Homo sapiens (Human), UniProt P13866); experiment: In-vitro [14C]-AMG uptake inhibition assay in CHO cells stably expressing human SGLT-1; format: cell-based; conditions: human SGLT-1 in CHO cells
Experimental: In the in-vitro assay for the pharmacological activities of the present compounds, the human SGLT-2 and SGLT-1 sequences were transfected to Chinese hamster ovary cells to express stably. By measuring inhibition of the sodium dependent adsorption of [^14C]-labeled […]-D-glucopyranoside (AMG) into the cells, the half-inhibition concentration IC50 was determined. Buffer A (KRH—Na^+): 120 mM NaCl, 4.7 mM KCl, 1.2 mM MgCl2, 2.2 mM CaCl2, 10 mM HEPES (PH 7.4 with 1 mM Tris). Buffer A− (KRH—NMG): 120 mM NMG, 4.7 mM KCl, 1.2 mM MgCl2, 2.2 mM CaCl2, 10 mM HEPES (PH 7.4 with 1 mM Tris). Buffer D: 120 mM NaCl, 4.7 mM KCl, 1.2 mM MgCl2, 2.2 mM CaCl2, 10 mM HEPES, 0.5 mM phlorizin (PH 7.4 with 1 mM Tris). Assay method: Human SGLT-2 and SGLT-1 sequences were stably expressed in the CHO cells. The cell culture was conducted in a 96-well plate for 12 hr. The plate was washed with KRH—Na+(Buffer A) or KRH-NMG (Buffer A−) buffering solution for three times, 2004/well. Then the plate was added with a buffering solution containing Buffer A or Buffer A− plus [^14C]-AMG (10 μCi/mL), 100 μL/well. The cell culture was conducted at 37° C. for 1 hr. Then, 100 μL of an ice pre-cooled buffering solution (Buffer D) was added to terminate the assay. The plate was washed for five times. Then an ice pre-cooled lytic buffering solution (100 mM NaOH solution) was added, 20 μL/well, and the centrifugation at 600 rpm was conducted for 5 mins. Then Microscint 40 solution was added, 80 μl/well, and the centrifugation at 600 rpm was conducted for 5 mins. Finally, the radioactivity of [^14C]-AMG was detected with MicroBeta Trilux (purchased from PerkinElmer Co. Ltd.) according to the scintillation counting method, and the half-inhibition concentration IC50 was calculated.

human SGLT-2 = human SGLT-2 (Homo sapiens (Human), UniProt P31639); experiment: In-vitro [14C]-AMG uptake inhibition assay in CHO cells stably expressing human SGLT-2; format: cell-based; conditions: for Selectivity: SGLT-1 IC50 / SGLT-2 IC50
Experimental: In the in-vitro assay for the pharmacological activities of the present compounds, the human SGLT-2 and SGLT-1 sequences were transfected to Chinese hamster ovary cells to express stably. By measuring inhibition of the sodium dependent adsorption of [^14C]-labeled […]-D-glucopyranoside (AMG) into the cells, the half-inhibition concentration IC50 was determined.
Buffer A (KRH—Na^+): 120 mM NaCl, 4.7 mM KCl, 1.2 mM MgCl2, 2.2 mM CaCl2, 10 mM HEPES (PH 7.4 with 1 mM Tris).
Buffer A− (KRH—NMG): 120 mM NMG, 4.7 mM KCl, 1.2 mM MgCl2, 2.2 mM CaCl2, 10 mM HEPES (PH 7.4 with 1 mM Tris).
Buffer D: 120 mM NaCl, 4.7 mM KCl, 1.2 mM MgCl2, 2.2 mM CaCl2, 10 mM HEPES, 0.5 mM phlorizin (PH 7.4 with 1 mM Tris).
Assay method: Human SGLT-2 and SGLT-1 sequences were stably expressed in the CHO cells. The cell culture was conducted in a 96-well plate for 12 hr. The plate was washed with KRH—Na+(Buffer A) or KRH-NMG (Buffer A−) buffering solution for three times, 2004/well. Then the plate was added with a buffering solution containing Buffer A or Buffer A− plus [^14C]-AMG (10 μCi/mL), 100 μL/well. The cell culture was conducted at 37° C. for 1 hr. Then, 100 μL of an ice pre-cooled buffering solution (Buffer D) was added to terminate the assay. The plate was washed for five times. Then an ice pre-cooled lytic buffering solution (100 mM NaOH solution) was added, 20 μL/well, and the centrifugation at 600 rpm was conducted for 5 mins. Then Microscint 40 solution was added, 80 μl/well, and the centrifugation at 600 rpm was conducted for 5 mins. Finally, the radioactivity of [^14C]-AMG was detected with MicroBeta Trilux (purchased from PerkinElmer Co. Ltd.) according to the scintillation counting method, and the half-inhibition concentration IC50 was calculated.

[1] = Rat in-vivo pharmacokinetic assay (PO); conditions: male SD rats, PO 10 mg/kg, plasma
Experimental: Assay animals: 6-8 weeks aged male SD rats (purchased from Vital River Laboratories), 3 rats per compound, weighing 200-240 g.
Solvent: 0.5% MC (methyl cellulose) solution+0.1% SDS (sodium dodecyl sulfate).
Intragastric administration (PO): See Table 2
Blood collection: each of 200 μL whole blood were collected at 0.17 hr, 0.5 hr, 1 hr, 2 hr, 4 hr, 6 hr, 8 hr, 24 hr, 30 hr, 48 hr, 54 hr and 72 hr. The collected blood samples were centrifuged at 4° C. at 8000 rpm in a low temperature high-speed centrifuge (5415R, Eppendorf) for 6 mins to separate the blood plasma. The separated plasma was preserved at −80° C. in a refrigerator.
20 μL of the plasma was carefully taken out, to which was added 600 µL of an internal standard MTBE (methyl tert-butyl ether) solution (containing internal standard dapagliflozin 25 ng/ml). The plasma was subjected to a vortex at 1500 rpm for 10 mins, and then centrifuged at 12000 rpm for 5 mins. 4004 of the supernatant was taken and blow-dried with nitrogen gas. The dried substance was redissolved with 2004 of a redissolving solution (acetonitrile:water=7:3). The solution was subjected to a vortex for 10 mins, and analyzed with LC-MS/MS (API4000, Applied Biosystems).

Chain of human SGLT-2 (P31639 whole entry): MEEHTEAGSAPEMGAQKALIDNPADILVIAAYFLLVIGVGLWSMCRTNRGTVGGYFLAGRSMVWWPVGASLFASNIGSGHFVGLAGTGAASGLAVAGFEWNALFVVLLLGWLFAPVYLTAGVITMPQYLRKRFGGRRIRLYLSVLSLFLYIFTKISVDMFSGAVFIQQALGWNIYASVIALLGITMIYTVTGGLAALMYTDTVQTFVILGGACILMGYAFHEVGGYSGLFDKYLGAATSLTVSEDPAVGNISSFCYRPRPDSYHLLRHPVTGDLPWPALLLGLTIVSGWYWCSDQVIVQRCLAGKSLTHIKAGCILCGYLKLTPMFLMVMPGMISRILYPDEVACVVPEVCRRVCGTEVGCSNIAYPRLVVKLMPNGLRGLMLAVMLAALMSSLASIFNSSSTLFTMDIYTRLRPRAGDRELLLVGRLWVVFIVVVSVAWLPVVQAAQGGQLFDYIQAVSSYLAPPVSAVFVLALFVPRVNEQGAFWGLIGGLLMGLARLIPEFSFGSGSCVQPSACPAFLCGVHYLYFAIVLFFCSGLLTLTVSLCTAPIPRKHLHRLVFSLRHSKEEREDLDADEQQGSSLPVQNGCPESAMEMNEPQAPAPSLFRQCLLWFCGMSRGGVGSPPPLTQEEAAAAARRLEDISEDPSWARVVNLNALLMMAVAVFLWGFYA
Chain of human SGLT-1 (P13866 whole entry): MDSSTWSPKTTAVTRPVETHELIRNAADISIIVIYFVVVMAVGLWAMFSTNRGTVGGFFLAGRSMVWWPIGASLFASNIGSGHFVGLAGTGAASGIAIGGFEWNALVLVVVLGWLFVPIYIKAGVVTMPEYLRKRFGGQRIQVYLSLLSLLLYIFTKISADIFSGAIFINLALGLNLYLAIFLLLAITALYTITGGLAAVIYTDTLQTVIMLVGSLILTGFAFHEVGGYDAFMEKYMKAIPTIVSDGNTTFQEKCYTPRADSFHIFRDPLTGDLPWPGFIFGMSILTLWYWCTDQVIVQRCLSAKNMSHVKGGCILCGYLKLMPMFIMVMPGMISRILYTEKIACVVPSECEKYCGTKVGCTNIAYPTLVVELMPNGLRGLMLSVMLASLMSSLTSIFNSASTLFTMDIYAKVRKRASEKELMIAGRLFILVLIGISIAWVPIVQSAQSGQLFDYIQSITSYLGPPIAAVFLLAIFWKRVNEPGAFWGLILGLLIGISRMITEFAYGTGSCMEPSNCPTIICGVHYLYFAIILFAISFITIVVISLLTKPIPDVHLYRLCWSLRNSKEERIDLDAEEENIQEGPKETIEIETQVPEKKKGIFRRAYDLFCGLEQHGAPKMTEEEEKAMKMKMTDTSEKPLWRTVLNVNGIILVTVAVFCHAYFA

Row | SMILES | IC50 (human SGLT-1) | IC50 (human SGLT-2; human SGLT-2 in CHO cells, [14C]-AMG uptake) | AUC(0-inf) [1] | AUC(0-t) [1] | Cmax [1] | Tmax [1] | half-life [1] | Selectivity (human SGLT-2)
1 | OC[C@H]1O[C@@H](c2ccc(Cl)c(Cc3ccc(O[C@H]4C[C@@H]5C[C@@H]5C4)cc3)c2)[C@H](O)[C@@H](O)[C@@H]1O [Compound represented by formula (II), (2S,3R,4R,5S,6R)-2-(3-(4-(((1R,3s,5S)-bicyclo[3.1.0]hexan-3-yl)oxy)benzyl)-4-chlorophenyl)-6-(hydroxymethyl)tetrahydro-2H-pyran-3,4,5-triol] | 17.2 µM | 0.0025 µM | 92100 ng·h/mL | 92100 ng·h/mL | 6380 ng/mL | 1 h | 8.98 h | –
2 | OC[C@H]1O[C@@H](c2ccc(Cl)c(Cc3ccc(O[C@@H]4C[C@@H]5C[C@@H]5C4)cc3)c2)[C@H](O)[C@@H](O)[C@@H]1O [Compound represented by formula (III), (2S,3R,4R,5S,6R)-2-(3-(4-(((1R,3r,5S)-bicyclo[3.1.0]hexan-3-yl)oxy)benzyl)-4-chlorophenyl)-6-(hydroxymethyl)tetrahydro-2H-pyran-3,4,5-triol] | 3.08 µM | – | – | – | – | – | – | 392.77
3 | OC[C@H]1O[C@H](c2ccc(Cl)c(Cc3ccc(O[C@H]4C[C@@H]5C[C@@H]5C4)cc3)c2)[C@H](O)[C@@H](O)[C@@H]1O [Compound represented by formula (IV), (2R,3R,4R,5S,6R)-2-(3-(4-(((1R,3s,5S)-bicyclo[3.1.0]hexan-3-yl)oxy)benzyl)-4-chlorophenyl)-6-(hydroxymethyl)tetrahydro-2H-pyran-3,4,5-triol] | 111 µM | – | – | – | – | – | – | 100.34
4 | OC[C@H]1O[C@H](c2ccc(Cl)c(Cc3ccc(O[C@@H]4C[C@@H]5C[C@@H]5C4)cc3)c2)[C@H](O)[C@@H](O)[C@@H]1O [Compound represented by formula (V), (2R,3R,4R,5S,6R)-2-(3-(4-(((1R,3r,5S)-bicyclo[3.1.0]hexan-3-yl)oxy)benzyl)-4-chlorophenyl)-6-(hydroxymethyl)tetrahydro-2H-pyran-3,4,5-triol] | 75.5 µM | – | – | – | – | – | – | 267.77
